Test results as given in the supplement of paper PMC10307832.

How the values were obtained:
Experiment in all cases: relative viability (nuclei count vs DMSO), 5 days (fraction); higher = more cells survive
[1] = compound: Cn1cc(-c2cnc3ccc4ccc(CS(=O)(=O)NCc5ccccn5)cc4c(=O)c3c2)cn1 [MK-8033] + CCNC(=O)c1noc(-c2cc(C(C)C)c(O)cc2O)c1-c1ccc(CN2CCOCC2)cc1 [Luminespib] (partner 0.01 µM)
In short: (§1)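 Nuclei were stained with Hoechst during a one-step fixation (final 0.05% Triton X-100, 1% formaldehyde, 1 ug/ml Hoechst) carried out 5 days after dosing, then counted on 4× images. The cells, lung cancer lines in 1536-well plates, had been dosed by pin tool the day after seeding with one drug alone or a fixed anchor-drug dose plus five library-drug doses (not always all listed) in √10 steps. Relative viability is the nuclei count in treated wells divided by that in vehicle wells, and each value is the median of duplicate plates.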

[2] = compound: CC[C@@H](C)CNCC(=O)N1CCC2=C([C@@H]1COC3=CC=CC(=C3)C)C=CS2 [RU-SKI 43] + C[C@@H](Oc1cc(-c2cnn(C3CCNCC3)c2)cnc1N)c1c(Cl)ccc(F)c1Cl [Crizotinib] (partner 1 µM)
In short: as §1

[3] = compound: CC[C@@H](C)CNCC(=O)N1CCC2=C([C@@H]1COC3=CC=CC(=C3)C)C=CS2 [RU-SKI 43] + CC(C)C[C@H](NC(=O)[C@H](Cc1ccccc1)NC(=O)c1cnccn1)B(O)O [Bortezomib] (partner 0.002 µM)
In short: as §1

[4] = compound: CCc1c2c(nc3ccc(OC(=O)N4CCC(N5CCCCC5)CC4)cc13)-c1cc3c(c(=O)n1C2)COC(=O)[C@]3(O)CC [Irinotecan] + Nc1ncn([C@H]2C[C@H](O)[C@@H](CO)O2)c(=O)n1 [Decitabine] (partner 2 µM)
In short: as §1

Cell Line	relative viability ([1]; first compound 0.02 µM)	relative viability ([1]; first compound 0.06325 µM)	relative viability ([1]; first compound 0.2 µM)	relative viability ([1]; first compound 0.6325 µM)	relative viability ([1]; first compound 2 µM)	relative viability ([2]; first compound 0.1 µM)	relative viability ([2]; first compound 0.3162 µM)	relative viability ([2]; first compound 1 µM)	relative viability ([2]; first compound 3.162 µM)	relative viability ([2]; first compound 10 µM)	relative viability ([3]; first compound 0.1 µM)	relative viability ([3]; first compound 0.3162 µM)	relative viability ([3]; first compound 1 µM)	relative viability ([3]; first compound 3.162 µM)	relative viability ([3]; first compound 10 µM)	relative viability ([4]; first compound 2 µM)	relative viability ([4]; first compound 6.325 µM)	relative viability ([4]; first compound 20 µM)	relative viability ([4]; first compound 0.6325 µM)
H3255	0.864	0.737	0.834	0.896	0.916	0.858	0.885	0.976	0.791	0.874	0.906	0.751	1.23	0.652	0.754	0.456	0.266	0.225	
NCI-H727	0.434		0.291	0.346	0.516	0.688	0.975	0.796	0.872	0.7	1	1.14	0.834	0.839	0.802	0.751	0.527	0.602	0.617
EKVX	0.888	0.905	0.814	0.889	0.842	0.902	1.01	0.926	0.987	0.713	1.09	1.24	1.2	0.958	0.585	0.27	0.262	0.229	
NCI-H1666	1	0.987	0.979	1.03	0.924	0.966	1.01	0.971	0.945	0.571	0.704	0.84	0.702	0.719	0.534	0.62	0.547	0.545	0.551
NCI-H1915	0.728	0.8	0.676	0.827	0.668	0.913	1.36	0.938	0.957	0.959	1.05	1.39	1.1	0.959	1.02	0.189	0.134	0.126	0.216
EPLC-272H	0.214	0.339	0.282	0.218	0.475	0.981	0.964	1.01		0.812	0.905	1.08	1.09		1.09	0.33	0.223	0.151	
NCI-H1792	0.383	0.34	0.442	0.217	0.273	1.09	1.53	1.21	1	0.921	0.961	1.29	1.31	1.03	0.941	0.522	0.287	0.228	0.405
RERF-LC-KJ	1.14	1.14	1.25	1.24	1.06	0.904	0.86	0.772	0.862	0.77	1.12	1.39	1.17	1.2	1.2	0.792	0.482	0.154	0.539
NCI-H2126	0.905	0.757	0.817	0.836	0.872	1.01	1.24	1.06	1.06	1.01	1.15	1.25	1.23	1.12	1.08	0.372	0.295	0.267	0.503
ABC-1	0.544	0.545		0.602	0.473	0.993	1.21	1.26	0.939	0.563	0.286	0.351	0.35	0.285	0.312	0.851	0.515	0.475	
NCI-H1355	0.695	0.686	0.607	0.74	0.646	1.07	1.14	1.17	1.26	1.01	1.21	1.29	1.18	1.21	1.2	0.27	0.19	0.242	
A-427	0.85	0.85	0.83	0.88	0.91	0.832	0.809	0.904		0.651	1.05	0.95	1.05		0.896	0.573	0.347	0.198	0.566
NCI-H3122	0.0907	0.0983	0.0777	0.0917	0.0881	0.256	0.257	0.249	0.287	0.244	1.06	0.924	0.993	1.02	0.978	0.163	0.117	0.127	0.232
NCI-H1437	1.11	1	1.05	1.08	1.04	0.873	1.29	1.11	0.93	0.875	0.581	0.594	0.637	0.629	0.526	0.536	0.391	0.334	0.586
COR-L23	0.696	0.595	0.722	0.661	0.606	0.752	0.598	0.736	0.667	0.492	1.18	0.714	1.12	1.14	1.03	0.336	0.192	0.104	0.314
NCI-H1651	1.02	0.846	0.733	0.853	0.874	0.886	0.971	0.891	0.887	0.865	0.93	1.1	1.01	0.931	0.947	0.486	0.18	0.137	0.264
NCI-H2087	0.119	0.174	0.148	0.242	0.148	0.837	1.12	0.915	0.783	0.733	0.759	0.942	0.996	0.735	0.925	0.218	0.196	0.159	0.146
ChaGo-K-1	0.679	0.696	0.562	0.636	0.516	1.15	1.27	1.26	1.17	0.951	1.39	1.14	1.29	0.84	0.939	0.251	0.233	0.239	0.344
NCI-H661	0.926	0.938	0.893	0.948	0.872	0.887	0.943	0.984	0.942	0.938	0.776	0.704	0.835	0.943	0.764	0.546	0.424	0.168	0.532
LXF-289	0.66	0.654	0.591	0.665	0.643	0.815	0.784	0.806	0.83	0.736	1.06	0.977	1.03	1.06	0.974	0.218	0.162	0.165	0.351
LC-2-ad	1.04	0.97		1.08	0.878	0.443	0.392	0.535		0.43	1.03	1.21	1.06	1.1	0.867	0.355	0.338	0.262	0.532
NCI-H2085	0.471	0.483	0.378	0.447	0.415	0.881	0.709	0.805	0.783	0.761	1.03	1.08	1.1	0.995	0.988	0.391	0.38	0.382	0.536
